Laboratory results reported in the kinase profiling compilation of Christmann-Franck et al. (2016).

Tests used:
Assay in all cases: radiometric filter-binding kinase assay
INSRR (human) = INSRR (human) (UniProt P14616)
MAPK14 (human) = MAPK14 (human) (UniProt Q16539)
CDK2 CCNA2 (human) = CDK2 CCNA2 (human) (UniProt P20248+P24941)
RPS6KA1 KD1 KD2 (human) = RPS6KA1 KD1 KD2 (human) (UniProt Q15418)
SRC (human) = SRC (human) (UniProt P12931)
[1] = tested on: AKT2 (human), P31751 [S474D]
RPS6KA5 KD1 KD2 (human) = RPS6KA5 KD1 KD2 (human) (UniProt O75582)
EPHB1 (human) = EPHB1 (human) (UniProt P54762)
NEK6 (human) = NEK6 (human) (UniProt Q9HC98)
CSNK1D (human) = CSNK1D (human) (UniProt P48730)
RIPK2 (human) = RIPK2 (human) (UniProt O43353)
PIM2 (human) = PIM2 (human) (UniProt Q9P1W9)
RPS6KA3 KD1 KD2 (human) = RPS6KA3 KD1 KD2 (human) (UniProt P51812)
CSK (human) = CSK (human) (UniProt P41240)
PLK1 (human) = PLK1 (human) (UniProt P53350)
TTK (human) = TTK (human) (UniProt P33981)
BTK (human) = BTK (human) (UniProt Q06187)
EPHB4 (human) = EPHB4 (human) (UniProt P54760)
NEK2 (human) = NEK2 (human) (UniProt P51955)
EPHA4 (human) = EPHA4 (human) (UniProt P54764)
[2] = tested on: RPS6KB1 (human), P23443 [T412E]
MAPK15 (human) = MAPK15 (human) (UniProt Q8TD08)
PRKACA (human) = PRKACA (human) (UniProt P17612)
SYK (human) = SYK (human) (UniProt P43405)
IKBKB (human) = IKBKB (human) (UniProt O14920)
MAPK1 (human) = MAPK1 (human) (UniProt P28482)
IKBKE (human) = IKBKE (human) (UniProt Q14164)
MAP2K1 (human) = MAP2K1 (human) (UniProt Q02750)
MKNK2 (human) = MKNK2 (human) (UniProt Q9HBH9)
MAPKAPK3 (human) = MAPKAPK3 (human) (UniProt Q16644)
PAK7 (human) = PAK7 (human) (UniProt Q9P286)
MAPK3 (human) = MAPK3 (human) (UniProt P27361)
PRKAA1 or PRKAA2 (rat) = details: accession and sequence are those of the human protein
FLT1 (human) = FLT1 (human) (UniProt P17948)
CHEK2 (human) = CHEK2 (human) (UniProt O96017)
Sequence of CHEK2 (human) (O96017 whole entry, looked up): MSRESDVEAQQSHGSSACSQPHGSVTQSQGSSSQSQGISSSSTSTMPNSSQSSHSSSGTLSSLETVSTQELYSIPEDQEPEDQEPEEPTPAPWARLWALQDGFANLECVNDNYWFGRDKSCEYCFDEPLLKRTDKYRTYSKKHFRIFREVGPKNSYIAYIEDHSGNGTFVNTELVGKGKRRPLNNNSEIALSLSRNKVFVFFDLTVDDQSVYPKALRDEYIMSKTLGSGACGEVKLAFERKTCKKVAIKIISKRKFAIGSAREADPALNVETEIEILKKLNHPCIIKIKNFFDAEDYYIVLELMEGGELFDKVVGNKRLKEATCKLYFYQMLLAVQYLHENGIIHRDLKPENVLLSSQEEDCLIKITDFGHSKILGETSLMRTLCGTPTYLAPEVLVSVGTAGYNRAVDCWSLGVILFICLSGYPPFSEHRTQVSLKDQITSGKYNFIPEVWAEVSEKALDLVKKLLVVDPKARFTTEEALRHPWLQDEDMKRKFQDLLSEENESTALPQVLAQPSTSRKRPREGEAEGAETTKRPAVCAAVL

Sequence of PLK1 (human) (P53350 whole entry, looked up): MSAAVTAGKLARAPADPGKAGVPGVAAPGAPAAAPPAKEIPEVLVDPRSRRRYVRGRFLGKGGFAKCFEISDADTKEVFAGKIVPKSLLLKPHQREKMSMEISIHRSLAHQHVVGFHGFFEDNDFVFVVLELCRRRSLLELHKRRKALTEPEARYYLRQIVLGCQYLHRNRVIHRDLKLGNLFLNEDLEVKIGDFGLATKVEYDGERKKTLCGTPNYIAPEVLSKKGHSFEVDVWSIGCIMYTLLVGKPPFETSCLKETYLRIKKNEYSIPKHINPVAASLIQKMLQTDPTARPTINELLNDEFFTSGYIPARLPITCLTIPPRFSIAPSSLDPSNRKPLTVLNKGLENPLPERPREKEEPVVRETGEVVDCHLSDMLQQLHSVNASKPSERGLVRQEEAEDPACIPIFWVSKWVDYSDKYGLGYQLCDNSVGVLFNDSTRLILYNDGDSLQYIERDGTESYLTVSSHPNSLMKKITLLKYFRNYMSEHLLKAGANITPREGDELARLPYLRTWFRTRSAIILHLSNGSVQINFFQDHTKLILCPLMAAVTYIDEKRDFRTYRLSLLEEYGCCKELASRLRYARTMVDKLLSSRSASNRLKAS
Sequence of MAP2K1 (human) (Q02750 whole entry, looked up): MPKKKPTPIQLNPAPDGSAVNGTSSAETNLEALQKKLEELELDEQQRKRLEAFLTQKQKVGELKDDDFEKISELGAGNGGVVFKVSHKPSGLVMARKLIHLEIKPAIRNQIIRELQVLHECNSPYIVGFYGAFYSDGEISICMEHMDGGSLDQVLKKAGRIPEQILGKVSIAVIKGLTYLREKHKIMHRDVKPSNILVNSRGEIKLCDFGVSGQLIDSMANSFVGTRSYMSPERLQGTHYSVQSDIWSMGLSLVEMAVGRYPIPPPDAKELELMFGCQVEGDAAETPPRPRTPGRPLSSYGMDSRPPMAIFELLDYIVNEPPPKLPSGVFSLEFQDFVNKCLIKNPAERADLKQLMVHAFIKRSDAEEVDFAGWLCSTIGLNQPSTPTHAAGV
Sequence of MAPK1 (human) (P28482 whole entry, looked up): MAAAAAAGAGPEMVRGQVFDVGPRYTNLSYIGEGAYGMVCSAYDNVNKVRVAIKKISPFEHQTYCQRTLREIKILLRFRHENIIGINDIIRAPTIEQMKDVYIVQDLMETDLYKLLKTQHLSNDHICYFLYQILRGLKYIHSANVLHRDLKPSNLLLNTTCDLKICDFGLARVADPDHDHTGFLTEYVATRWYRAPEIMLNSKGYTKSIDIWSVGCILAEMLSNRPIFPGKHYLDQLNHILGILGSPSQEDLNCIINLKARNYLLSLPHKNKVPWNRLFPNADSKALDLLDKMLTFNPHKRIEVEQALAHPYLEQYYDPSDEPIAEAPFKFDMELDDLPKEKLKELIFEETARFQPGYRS
Sequence of NEK2 (human) (P51955 whole entry, looked up): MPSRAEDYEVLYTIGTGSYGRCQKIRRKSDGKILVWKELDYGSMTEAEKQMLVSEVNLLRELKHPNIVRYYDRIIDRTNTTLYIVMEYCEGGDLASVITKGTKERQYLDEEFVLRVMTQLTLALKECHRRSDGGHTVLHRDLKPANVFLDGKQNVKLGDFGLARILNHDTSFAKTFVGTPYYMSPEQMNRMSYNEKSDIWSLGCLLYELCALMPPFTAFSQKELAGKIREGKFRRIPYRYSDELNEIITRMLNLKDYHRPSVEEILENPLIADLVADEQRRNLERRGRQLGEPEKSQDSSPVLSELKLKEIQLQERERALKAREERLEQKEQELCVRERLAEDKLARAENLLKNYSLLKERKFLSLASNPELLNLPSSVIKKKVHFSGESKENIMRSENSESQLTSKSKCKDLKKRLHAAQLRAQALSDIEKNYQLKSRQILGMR
Sequence of IKBKB (human) (O14920 whole entry, looked up): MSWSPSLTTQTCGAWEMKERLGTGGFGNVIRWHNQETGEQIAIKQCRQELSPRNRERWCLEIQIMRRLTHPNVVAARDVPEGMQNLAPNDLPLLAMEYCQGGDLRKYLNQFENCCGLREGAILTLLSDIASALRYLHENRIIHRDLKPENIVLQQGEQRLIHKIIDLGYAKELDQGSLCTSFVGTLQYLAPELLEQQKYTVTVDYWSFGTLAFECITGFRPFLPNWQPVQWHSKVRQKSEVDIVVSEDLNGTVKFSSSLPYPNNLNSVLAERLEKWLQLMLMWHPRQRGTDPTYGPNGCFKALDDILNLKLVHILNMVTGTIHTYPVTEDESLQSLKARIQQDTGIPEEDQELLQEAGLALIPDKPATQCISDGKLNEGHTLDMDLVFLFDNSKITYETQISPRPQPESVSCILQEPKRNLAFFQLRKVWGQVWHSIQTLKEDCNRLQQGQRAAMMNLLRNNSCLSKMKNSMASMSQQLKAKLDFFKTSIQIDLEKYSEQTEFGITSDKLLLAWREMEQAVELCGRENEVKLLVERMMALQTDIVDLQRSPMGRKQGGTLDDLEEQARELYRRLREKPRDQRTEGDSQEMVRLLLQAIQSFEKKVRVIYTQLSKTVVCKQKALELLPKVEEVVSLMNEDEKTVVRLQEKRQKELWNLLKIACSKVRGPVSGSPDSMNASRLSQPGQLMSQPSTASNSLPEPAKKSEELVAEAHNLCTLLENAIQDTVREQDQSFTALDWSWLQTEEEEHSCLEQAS
Sequence of RPS6KA1 KD1 KD2 (human) (Q15418 whole entry, looked up): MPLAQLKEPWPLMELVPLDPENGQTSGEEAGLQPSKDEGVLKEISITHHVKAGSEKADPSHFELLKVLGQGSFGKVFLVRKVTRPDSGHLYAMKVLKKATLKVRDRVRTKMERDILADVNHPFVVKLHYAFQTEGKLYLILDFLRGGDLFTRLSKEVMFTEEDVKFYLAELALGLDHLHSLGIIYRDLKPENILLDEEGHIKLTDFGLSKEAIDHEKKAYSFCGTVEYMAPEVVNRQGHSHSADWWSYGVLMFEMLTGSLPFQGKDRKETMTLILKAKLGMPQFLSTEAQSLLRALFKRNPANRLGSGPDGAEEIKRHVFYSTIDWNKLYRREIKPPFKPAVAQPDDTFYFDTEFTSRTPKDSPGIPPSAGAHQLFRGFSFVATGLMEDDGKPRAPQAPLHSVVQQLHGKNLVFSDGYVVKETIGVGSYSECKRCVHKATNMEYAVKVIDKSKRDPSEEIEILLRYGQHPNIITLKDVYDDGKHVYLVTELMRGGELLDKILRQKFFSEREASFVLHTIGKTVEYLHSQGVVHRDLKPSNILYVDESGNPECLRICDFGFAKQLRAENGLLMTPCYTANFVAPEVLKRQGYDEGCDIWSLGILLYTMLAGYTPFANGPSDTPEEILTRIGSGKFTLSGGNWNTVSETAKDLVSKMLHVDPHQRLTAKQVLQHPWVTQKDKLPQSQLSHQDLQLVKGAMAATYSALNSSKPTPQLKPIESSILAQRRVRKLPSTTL
Sequence of PIM2 (human) (Q9P1W9 whole entry, looked up): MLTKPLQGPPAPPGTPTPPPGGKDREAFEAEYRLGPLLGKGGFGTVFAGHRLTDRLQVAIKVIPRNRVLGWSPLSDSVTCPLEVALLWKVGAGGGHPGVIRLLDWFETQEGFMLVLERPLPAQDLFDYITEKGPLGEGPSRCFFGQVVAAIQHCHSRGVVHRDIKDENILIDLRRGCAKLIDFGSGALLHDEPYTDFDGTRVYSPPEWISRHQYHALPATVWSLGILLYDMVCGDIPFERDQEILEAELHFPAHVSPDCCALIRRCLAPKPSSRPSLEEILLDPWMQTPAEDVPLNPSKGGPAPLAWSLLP
Sequence of MAPK14 (human) (Q16539 whole entry, looked up): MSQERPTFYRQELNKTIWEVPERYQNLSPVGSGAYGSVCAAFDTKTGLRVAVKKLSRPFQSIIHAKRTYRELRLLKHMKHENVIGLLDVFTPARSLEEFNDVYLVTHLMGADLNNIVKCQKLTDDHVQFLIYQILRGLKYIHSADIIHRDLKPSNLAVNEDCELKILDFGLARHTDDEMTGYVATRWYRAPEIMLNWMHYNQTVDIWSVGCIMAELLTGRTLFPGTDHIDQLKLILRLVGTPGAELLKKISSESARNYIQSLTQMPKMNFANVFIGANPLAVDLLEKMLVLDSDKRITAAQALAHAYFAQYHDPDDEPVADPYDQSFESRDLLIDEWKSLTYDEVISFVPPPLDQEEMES
Sequence of CSK (human) (P41240 whole entry, looked up): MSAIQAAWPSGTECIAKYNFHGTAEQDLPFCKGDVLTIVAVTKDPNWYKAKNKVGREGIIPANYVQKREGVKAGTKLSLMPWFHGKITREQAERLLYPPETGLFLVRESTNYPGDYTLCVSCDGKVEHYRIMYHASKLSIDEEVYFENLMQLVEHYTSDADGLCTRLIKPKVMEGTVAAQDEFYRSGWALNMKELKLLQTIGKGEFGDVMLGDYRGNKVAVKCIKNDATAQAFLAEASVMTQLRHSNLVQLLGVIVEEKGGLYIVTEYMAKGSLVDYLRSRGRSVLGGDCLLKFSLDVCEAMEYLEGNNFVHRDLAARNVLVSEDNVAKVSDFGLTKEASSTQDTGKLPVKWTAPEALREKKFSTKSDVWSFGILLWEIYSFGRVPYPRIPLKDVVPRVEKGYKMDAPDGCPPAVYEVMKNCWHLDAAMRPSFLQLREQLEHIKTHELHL

## N#Cc1c(O)c2c(-c3ccc(-c4ccccc4O)cc3)csc2[nH]c1=O
INSRR (human); compound 10.0 µM
  residual activity: 88%
INSRR (human); compound 50.0 µM
  residual activity: 90%
INSRR (human); compound 100.0 µM
  residual activity: 51%
MAPK14 (human); compound 10.0 µM
  residual activity: 97%
MAPK14 (human); compound 50.0 µM
  residual activity: 122%
MAPK14 (human); compound 100.0 µM
  residual activity: 90%
CDK2 CCNA2 (human); compound 10.0 µM
  residual activity: 100%
CDK2 CCNA2 (human); compound 50.0 µM
  residual activity: 84%
CDK2 CCNA2 (human); compound 100.0 µM
  residual activity: 121%
RPS6KA1 KD1 KD2 (human); compound 10.0 µM
  residual activity: 80%
RPS6KA1 KD1 KD2 (human); compound 50.0 µM
  residual activity: 9%
RPS6KA1 KD1 KD2 (human); compound 100.0 µM
  residual activity: 12%
SRC (human); compound 10.0 µM
  residual activity: 44%
SRC (human); compound 50.0 µM
  residual activity: 65%
SRC (human); compound 100.0 µM
  residual activity: 10%
[1]; compound 10.0 µM
  residual activity: 56%
[1]; compound 50.0 µM
  residual activity: 37%
[1]; compound 100.0 µM
  residual activity: 11%
RPS6KA5 KD1 KD2 (human); compound 10.0 µM
  residual activity: 69%
RPS6KA5 KD1 KD2 (human); compound 50.0 µM
  residual activity: 39%
RPS6KA5 KD1 KD2 (human); compound 100.0 µM
  residual activity: 42%
EPHB1 (human); compound 10.0 µM
  residual activity: 110%
EPHB1 (human); compound 100.0 µM
  residual activity: 97%
NEK6 (human); compound 10.0 µM
  residual activity: 104%
NEK6 (human); compound 50.0 µM
  residual activity: 94%
NEK6 (human); compound 100.0 µM
  residual activity: 137%
CSNK1D (human); compound 10.0 µM
  residual activity: 88%
CSNK1D (human); compound 50.0 µM
  residual activity: 60%
CSNK1D (human); compound 100.0 µM
  residual activity: 88%
RIPK2 (human); compound 10.0 µM
  residual activity: 110%
RIPK2 (human); compound 100.0 µM
  residual activity: 139%
PIM2 (human); compound 10.0 µM
  residual activity: 71%
PIM2 (human); compound 50.0 µM
  residual activity: 17%
PIM2 (human); compound 100.0 µM
  residual activity: 18%
RPS6KA3 KD1 KD2 (human); compound 10.0 µM
  residual activity: 74%
RPS6KA3 KD1 KD2 (human); compound 50.0 µM
  residual activity: 27%
RPS6KA3 KD1 KD2 (human); compound 100.0 µM
  residual activity: 13%
CSK (human); compound 10.0 µM
  residual activity: 79%
CSK (human); compound 50.0 µM
  residual activity: 46%
CSK (human); compound 100.0 µM
  residual activity: 82%
PLK1 (human); compound 10.0 µM
  residual activity: 88%
PLK1 (human); compound 50.0 µM
  residual activity: 28%
PLK1 (human); compound 100.0 µM
  residual activity: 25%
TTK (human); compound 10.0 µM
  residual activity: 76%
TTK (human); compound 100.0 µM
  residual activity: 48%
BTK (human); compound 10.0 µM
  residual activity: 52%
BTK (human); compound 100.0 µM
  residual activity: 10%
EPHB4 (human); compound 10.0 µM
  residual activity: 82%
EPHB4 (human); compound 100.0 µM
  residual activity: 49%
NEK2 (human); compound 10.0 µM
  residual activity: 73%
NEK2 (human); compound 50.0 µM
  residual activity: 52%
NEK2 (human); compound 100.0 µM
  residual activity: 19%
EPHA4 (human); compound 10.0 µM
  residual activity: 93%
EPHA4 (human); compound 100.0 µM
  residual activity: 64%
[2]; compound 10.0 µM
  residual activity: 78%
[2]; compound 50.0 µM
  residual activity: 66%
[2]; compound 100.0 µM
  residual activity: 38%
MAPK15 (human); compound 10.0 µM
  residual activity: 81%
MAPK15 (human); compound 50.0 µM
  residual activity: 36%
MAPK15 (human); compound 100.0 µM
  residual activity: 24%
PRKACA (human); compound 10.0 µM
  residual activity: 89%
PRKACA (human); compound 50.0 µM
  residual activity: 41%
PRKACA (human); compound 100.0 µM
  residual activity: 95%
SYK (human); compound 10.0 µM
  residual activity: 106%
SYK (human); compound 50.0 µM
  residual activity: 36%
SYK (human); compound 100.0 µM
  residual activity: 42%
IKBKB (human); compound 10.0 µM
  residual activity: 86%
IKBKB (human); compound 50.0 µM
  residual activity: 60%
IKBKB (human); compound 100.0 µM
  residual activity: 39%
MAPK1 (human); compound 10.0 µM
  residual activity: 103%
MAPK1 (human); compound 50.0 µM
  residual activity: 74%
MAPK1 (human); compound 100.0 µM
  residual activity: 49%
IKBKE (human); compound 10.0 µM
  residual activity: 69%
IKBKE (human); compound 50.0 µM
  residual activity: 47%
IKBKE (human); compound 100.0 µM
  residual activity: 12%
MAP2K1 (human); compound 10.0 µM
  residual activity: 79%
MAP2K1 (human); compound 50.0 µM
  residual activity: 27%
MAP2K1 (human); compound 100.0 µM
  residual activity: 29%
MKNK2 (human); compound 10.0 µM
  residual activity: 102%
MKNK2 (human); compound 50.0 µM
  residual activity: 80%
MKNK2 (human); compound 100.0 µM
  residual activity: 86%
MAPKAPK3 (human); compound 10.0 µM
  residual activity: 57%
MAPKAPK3 (human); compound 50.0 µM
  residual activity: 48%
MAPKAPK3 (human); compound 100.0 µM
  residual activity: 8%
PAK7 (human); compound 10.0 µM
  residual activity: 58%
PAK7 (human); compound 50.0 µM
  residual activity: 50%
PAK7 (human); compound 100.0 µM
  residual activity: 39%
MAPK3 (human); compound 10.0 µM
  residual activity: 83%
MAPK3 (human); compound 50.0 µM
  residual activity: 102%
MAPK3 (human); compound 100.0 µM
  residual activity: 63%
PRKAA1 or PRKAA2 (rat); compound 10.0 µM
  residual activity: 135%
PRKAA1 or PRKAA2 (rat); compound 50.0 µM
  residual activity: 67%
PRKAA1 or PRKAA2 (rat); compound 100.0 µM
  residual activity: 62%
FLT1 (human); compound 10.0 µM
  residual activity: 65%
FLT1 (human); compound 100.0 µM
  residual activity: 11%
CHEK2 (human); compound 10.0 µM
  residual activity: 79%
CHEK2 (human); compound 50.0 µM
  residual activity: 52%
CHEK2 (human); compound 100.0 µM
  residual activity: 33%
